Measurements: publication PMC5074515 (PLoS ONE, 2016)
In brackets after ≈: the same amount, converted by molar mass. Where two headings read alike, the source gives them in different places.

Tests used:
[1] = system: Mtb H37Rv; assay: In vitro qHTS assay against Mtb H37Rv (IC90); assay type: cell-based, M. tuberculosis; settings: for IC90: read-out: Mtb H37Rv IC90; for fold more active against Mtb H37Rv than corresponding analog: 48 vs 23, 57 vs 56, 60 vs 24
[2] = system: Mtb H37Ra (ATCC 25177); assay: In vitro screen versus Mtb H37Ra (Alamar blue microdilution broth assay, MIC99); assay type: cell-based, M. tuberculosis; settings: Mycobacterium tuberculosis; lowest drug concentration that completely inhibited growth; read-out: Mtb H37Ra MIC99
Description: The initial screening set and selected other compounds were tested for their inhibitory activity against Mtb H37Ra (ATCC 25177) and MAC NJ211 strains. Screening was performed at 1.28 and 12.8 μg/mL in Middlebrook 7H9 broth supplemented with 0.2% glycerol and ADC enrichment using a colorimetric (Alamar blue) microdilution broth assay by reported methods.[15]

[3] = Mycobacterium tuberculosis, H37RV, concentration that inhibits bacterial growth by 90%
[4] = concentration that inhibits bacterial growth by 90%

CSc1ccc(/C=C2/C(C)=C(CC(=O)NCCCN3CCCCC3C)c3cc(F)ccc32)cc1 (centres unmarked) [Compound 25, (Z)-2-(5-Fluoro-2-methyl-1-(4-(methylthio)benzylidene)-1H-inden-3-yl)-N-(3-(2-methylpiperidin-1-yl)propyl)acetamide]
IC90 [1, 3]: 5.41 ± 0.11 µM
melting point: 84 to 86 °C

CCN1CCC[C@H]1CNC(=O)CC1=C(C)/C(=C/c2nc3ccccc3s2)c2ccc(F)cc21 [Compound 42, (S,Z)-2-(1-(Benzo[d]thiazol-2-ylmethylene)-5-fluoro-2-methyl-1H-inden-3-yl)-N-((1-ethylpyrrolidin-2-yl)methyl)acetamide]
IC90 [1, 3]: 5.46 ± 0.12 µM
melting point: 168 to 171 °C

CCN(CC)CCNC(=O)CC1=C(C)/C(=C/c2nc3ccccc3s2)c2ccc(F)cc21 [Compound 40, (Z)-2-(1-(Benzo[d]thiazol-2-ylmethylene)-5-fluoro-2-methyl-1H-inden-3-yl)-N-(2-(diethylamino)ethyl)acetamide]
IC90 [1, 3]: 3.47 ± 0.04 µM
melting point: 127 to 130 °C

CSc1ccc(/C=C2/C(C)=C(C(C)C(=O)N(C)CCN(C)C)c3cc(F)ccc32)cc1 (centres unmarked) [Compound 45, (Z)-N-(2-(Dimethylamino)ethyl)-2-(5-fluoro-2-methyl-1-(4-(methylthio)benzylidene)-1H-inden-3-yl)-N-methylpropanamide]
IC90 [1, 3]: 5.95 ± 0.06 µM

CSc1ccc(/C=C2/C(C)=C(CC(=O)N3CCN(c4ccncc4)CC3)c3cc(F)ccc32)cc1 [Compound 32, (Z)-2-(5-Fluoro-2-methyl-1-(4-(methylthio)benzylidene)-1H-inden-3-yl)-1-(4-(pyridin-4-yl)piperazin-1-yl)ethanone]
IC90 [1, 3]: 3.07 ± 0.04 µM
melting point: 171 to 174 °C

CSc1ccc(/C=C2/C(C)=C(CC(=O)NCc3ccco3)c3cc(F)ccc32)cc1 [Compound 36, (Z)-2-(5-Fluoro-2-methyl-1-(4-(methylthio)benzylidene)-1H-inden-3-yl)-N-(furan-2-ylmethyl)acetamide]
IC90 [1, 3]: > 100 µM
Mtb H37Rv IC90 [1, 4]: inactive
melting point: 166 to 168 °C

CCN(CC)CCCNC(=O)CC1=C(C)/C(=C/c2ccc(SC)cc2)c2ccc(F)cc21 [Compound 21, (Z)-N-(3-(Diethylamino)propyl)-2-(5-fluoro-2-methyl-1-(4-(methylthio)benzylidene)-1H-inden-3-yl)acetamide]
IC90 [1, 3]: 4.36 ± 0.07 µM
melting point: 78 to 81 °C

CSc1ccc(/C=C2/C(C)=C(CC(=O)N3CCC(N4CCCCC4)CC3)c3cc(F)ccc32)cc1 [Compound 30, (Z)-1-([1,4'-Bipiperidin]-1'-yl)-2-(5-fluoro-2-methyl-1-(4-(methylthio)benzylidene)-1H-inden-3-yl)ethanone]
IC90 [1, 3]: 2.75 ± 0.02 µM
melting point: 145 to 148 °C

CSc1ccc(/C=C2/C(C)=C(C(C)C(=O)NCCCN3CCCCC3C)c3cc(F)ccc32)cc1 (centres unmarked) [Compound 50, (Z)-2-(5-Fluoro-2-methyl-1-(4-(methylthio)benzylidene)-1H-inden-3-yl)-N-(3-(2-methylpiperidin-1-yl)propyl)propanamide]
IC90 [1, 3]: 1.64 ± 0.07 µM
melting point: 87 to 89 °C

CSc1ccc(/C=C2/C(C)=C(C(C)C(=O)N3CCN(c4ccncc4)CC3)c3cc(F)ccc32)cc1 (centres unmarked) [Compound 55, (Z)-2-(5-Fluoro-2-methyl-1-(4-(methylthio)benzylidene)-1H-inden-3-yl)-1-(4-(pyridin-4-yl)piperazin-1-yl)propan-1-one]
IC90 [1, 3]: 2.89 ± 0.09 µM

CSc1ccc(/C=C2/C(C)=C(C(C)C(=O)N(C)CCN(C)C(=O)[C@@H](N)C(C)C)c3cc(F)ccc32)cc1 (stereo partly drawn) [Compound 57, (2S)-2-Amino-N-(2-(2-((Z)-5-fluoro-2-methyl-1-(4-(methylthio)benzylidene)-1H-inden-3-yl)-N-methylpropanamido)ethyl)-N,3-dimethylbutanamide]
fold more active against Mtb H37Rv than corresponding analog [1]: 6 fold
IC90 [1, 3]: 0.74 µM
melting point: 60 to 62 °C

CCN1CCC[C@H]1CNC(=O)CC1=C(C)/C(=C/c2ccc(SC)cc2)c2ccc(F)cc21 [Compound 28, (S,Z)-N-((1-Ethylpyrrolidin-2-yl)methyl)-2-(5-fluoro-2-methyl-1-(4-(methylthio)benzylidene)-1H-inden-3-yl)acetamide]
IC90 [1, 3]: 3.98 ± 0.03 µM
melting point: 74 to 76 °C

CSc1ccc(/C=C2/C(C)=C(C(C)C(=O)N3CCN(CCCN(C)C)CC3)c3cc(F)ccc32)cc1 (centres unmarked) [Compound 54, (Z)-1-(4-(3-(Dimethylamino)propyl)piperazin-1-yl)-2-(5-fluoro-2-methyl-1-(4-(methylthio)benzylidene)-1H-inden-3-yl)propan-1-one]
IC90 [1, 3]: 3.72 ± 0.06 µM
melting point: 78 to 80 °C

CSc1ccc(/C=C2/C(C)=C(C(C)C(=O)N3CCC(N4CCCCC4)CC3)c3cc(F)ccc32)cc1 (centres unmarked) [Compound 53, (Z)-1-([1,4'-Bipiperidin]-1'-yl)-2-(5-fluoro-2-methyl-1-(4-(methylthio)benzylidene)-1H-inden-3-yl)propan-1-one]
IC90 [1, 3]: 2.84 ± 0.06 µM
melting point: 80 to 82 °C

CNCCN(C)C(=O)C(C)C1=C(C)/C(=C/c2ccc(SC)cc2)c2ccc(F)cc21 (centres unmarked) [Compound 48, (Z)-2-(5-Fluoro-2-methyl-1-(4-(methylthio)benzylidene)-1H-inden-3-yl)-N-methyl-N-(2-(methylamino)ethyl)propanamide]
fold more active against Mtb H37Rv than corresponding analog [1]: 4 fold
IC90 [1, 3]: 2.11 ± 0.08 µM

CCN1CCC[C@H]1CNC(=O)C(C)C1=C(C)/C(=C/c2ccc(SC)cc2)c2ccc(F)cc21 (stereo partly drawn) [Compound 51, N-(((S)-1-Ethylpyrrolidin-2-yl)methyl)-2-((Z)-5-fluoro-2-methyl-1-(4-(methylthio)benzylidene)-1H-inden-3-yl)propanamide]
IC90 [1, 3]: 2.41 ± 0.04 µM

CSc1ccc(/C=C2/C(C)=C(C(C)C(=O)NCCN(C)C)c3cc(F)ccc32)cc1 (centres unmarked) [Compound 44, (Z)-N-(2-(Dimethylamino)ethyl)-2-(5-fluoro-2-methyl-1-(4-(methylthio)benzylidene)-1H-inden-3-yl)propanamide]
fold less active against Mtb H37Rv than desmethyl analog ([1]; 44 vs 18): 2 fold
IC90 [1, 3]: 13.6 ± 0.89 µM

CSc1ccc(/C=C2/C(C)=C(CC(=O)NCCC3CCCN3C)c3cc(F)ccc32)cc1 (centres unmarked) [Compound 27, (Z)-2-(5-Fluoro-2-methyl-1-(4-(methylthio)benzylidene)-1H-inden-3-yl)-N-(2-(1-methylpyrrolidin-2-yl)ethyl)acetamide]
IC90 [1, 3]: 4.34 ± 0.16 µM

(Z)-N-(3-(Dibutylamino)propyl)-2-(5-fluoro-2-methyl-1-(4-(methylthio)benzylidene)-1H-inden-3-yl)acetamide [Compound 22]
IC90 [1, 4]: 0.85 µM

CSc1ccc(/C=C2/C(C)=C(C(C)C(=O)NCCN3CCCCC3)c3cc(F)ccc32)cc1 (centres unmarked) [Compound 49, (Z)-2-(5-Fluoro-2-methyl-1-(4-(methylthio)benzylidene)-1H-inden-3-yl)-N-(2-(piperidin-1-yl)ethyl)propanamide]
IC90 [1, 3]: 1.99 ± 0.06 µM

CC(=O)O[C@H]1C(=O)[C@@]2(C)[C@H]([C@H](OC(=O)c3ccccc3)[C@]3(O)C[C@H](OC(=O)[C@H](O)[C@@H](NC(=O)c4ccccc4)c4ccccc4)C(C)=C1C3(C)C)[C@]1(OC(C)=O)CO[C@@H]1C[C@@H]2O [Compound 14, Taxol]
MIC99 [2]: 16 µg/mL (≈ 18.7 µM)

CC1=C(CC(=O)NCCN2CCCC2)c2cc(F)ccc2/C1=C\c1nc2ccccc2s1 [Compound 41, (Z)-2-(1-(Benzo[d]thiazol-2-ylmethylene)-5-fluoro-2-methyl-1H-inden-3-yl)-N-(2-(pyrrolidin-1-yl)ethyl)acetamide]
IC90 [1, 3]: 6.7 ± 0.04 µM
